Format in all cases: cell-based
For one data set, the system named is HBL-100 cells. The experiment in a line: Cell viability by neutral red assay, HBL-100. The settings on record: up to 6 days. As to the method: (§1) After 6 days treatment, cells were seeded into 24 well plates at a density of 1×10^4 cells/wells. After 24 h, cells were treated with reagents or vehicle for up to six days. At the end of the incubation period, medium was removed and cells were incubated with neutral red solution (40 μg/ml in phenol red and serum free DMEM) for 2 h at 37° C. After removal of the neutral red solution, wells were rinsed once with 1 ml 4% formal saline containing 0.5% CaCl2. Plates were inverted on paper towel to drain and 200 μl of elution fluid (1% acetic acid in 50% ethanol) was added. Following incubation at room temperature for 30 min with gentle shaking, absorbance at 550 nm was determined
In order to validate the previous results obtained in MDA-MB-231 cells, two other vitamin D resistant cell lines MCF-7/VD^R and HBL-100 cells, were investigated. First the effect of lenalidomide on these cells lines were investigated. To this end, cells were treated for up to 6 days with different concentrations of lenalidomide (0 μM up to 10 μM). Cell viability was measured by neutal red dye assay (FIG. 13).
More particularly, FIG. 13 illustrates the effects of lenalidomide treatment on MCF-7/VDR and HBL-100 viability. MCF-7/VDR and HBL-100 cells were treated for up to 6 days with different concentrations of lenalidomide (0 μM up to 10 μM). Cell viability was measured by neutral red dye assay. Results are mean of three independent experiments (each made in quadruplicate).
Cell viability was measured by neutral red dye assay (FIG. 14).
More particularly, FIG. 14 illustrates the effects of lenalidomide/1, 25-D3 co-treatment on MCF-7/VDR and HBL-100 viability. MCF-7/VDR and HBL-100 cells were treated for up to 6 days with different concentrations of lenalidomide (0.01 μM up to 1 μM) alone or in combination with different concentrations of 1, 25-D3 (0 for up to 1000 nM). Cell viability was measured by neutral red dye assay. Results are mean of three independent experiments (each made in quadruplicate).
(§2) To accomplish this, cells were treated for up to 6 days with different concentrations of a BCL-2 inhibitor, ABT-263 ([…]). Non-treated cells were used as a control. After 6 days of treatment, cell viability was measured by neutral red assay (FIG. 16). In the three cell lines, BCL-2 inhibition leads to cell death. The IC50 is almost equivalent in all cell lines (1 μM+/−0.2 μM).
(§3) More particularly, FIG. 16 illustrates the effects of BCL-2 inhibition on MCF-7VD^R and HBL-100 viability. MDA-MB-231, MCF-7/VD^R and HBL-100 cells were treated for up to 6 days with different concentrations of ABT-263 (0.2 up to 20 μM). Non-treated cells were used as a control. After 6 days of treatment, cell viability was measured by neutral red assay. Results are mean of three independent experiments (each made in quadruplicate).

Data set [1] concerns MDA-MB-231 cells. Put plainly: Cell growth by Sulphorhodamine B (SRB) assay, MDA-MB-231. The procedure:
Cells were seeded in 24 wells plates at a density of 10^4 cells per well and allowed to adhere for 24 hours. To determine the combination effects of the drugs, cells were treated with 100 nM 1,25 D3 and 10 nM 1-oxo-2-(2,6-dioxopiperidin-3-yl)-4-aminoisoindoline or 1,3-dioxo-2-(2,6-dioxopiperidin-3-3-yl)-4-aminoisoindoline. Each treatment was carried out for up to 7 days, but renewed every 2 days. Cell growth was then determined by Sulphorhodamine B (SRB) assay, measuring absorbance at 550 nm.
Cells were seeded in 24 wells plates at a density of 10^4 cells per wekk and allowed to adhere for 24 hours. To determine the combination effects of the drugs, cells were treated with 100 nM 1,25 D3 and varying doses of 1-oxo-2-(2,6-dioxopiperidin-3-yl)-4-aminoisoindoline or 1,3-dioxo-2-(2,6-dioxopiperidin-3-yl)-4-aminoisoindoline. Each treatment was carried out for up to 7 days, but renewed every 2 days. Cell growth was then determined by Sulphorhodamine B (SRB) assay, measuring absorbance at 550 nm.
After 6 days treatment, cells were seeded in 24 well plates at a density of 1×10^4 cells/well. After 24 h cells were treated with reagents or vehicle for up to six days. Cells were treated for up to 6 days with log doses of Thalidomide (0.1 μM up to 100 μM), pomalidomide and lenalidomide (0 μM up to 10 μM). At the end of each experiment, cells were fixed to the bottom of the well by addition of ice-cold 50% w/v trichloroacetic acid (TCA) to give a final concentration of 10% TCA. Plates were incubated at 4° C. for 30 minutes and then washed with distilled water. Plates were allowed to air-dry at room temperature before staining with 0.4% w/v SRB in 1% v/v acetic acid and incubated for 15 minutes on a shaker. The plates were then extensively washed with 1% acetic acid to remove unbound dye and were again allowed to air-dry at room temperature. Incorporated dye was solubilised with 200 μl […] Tris base. 100 μl aliquots were transferred to a 96 well plate and absorbance at 550 nm was determined
A general note: In SRB staining, fixed cells bind dye roughly in proportion to their protein.

The subject of data set [2] is MDA-MB-231 cells. Put plainly: Cell viability by neutral red assay, MDA-MB-231. The settings on record: for effect on cell viability: up to 6 days. The procedure: (§4) Cells were seeded in 24 wells plates at a density of 10^4 cells per well and allowed to adhere for 24 hours. […] The drug was renewed every 2 days. Cell viability was then determined by neutral red assay, measuring absorbance at 550 nm.
as §1, §2, §3

A further data set deals with MCF-7 cells. Put plainly: Cell viability by neutral red assay, MCF-7. As to the method:
as §4, §1

In another data set the test system is MCF-12A cells. Put plainly: Cell viability by neutral red assay, MCF-12A. The procedure:
as §4, §1

Where [3] appears, read: lenalidomide 0.01-1 μM alone or in combination with 1,25-D3 0-1000 nM, FIG. 14, p>0.05.
Where [4] appears, read: 1,25 D3 0-100 nM, 7 days, FIG. 1.
Where [5] appears, read: 100 nM 1,25-D3 alone, up to 6 days, FIG. 7A.
Setting [6] is: single agent, up to 6 days, Thalidomide 0.01-100 μM, CC-4047 and lenalidomide 0.001-10 μM, FIG. 6A.

Structures are written as SMILES.

As for `C=C1/C(=C\C=C2/CCC[C@]3(C)[C@@H]([C@H](C)CCCC(C)(C)O)CC[C@@H]23)C[C@@H](O)C[C@@H]1O` [1,25-D3, 1α,25-dihydroxyvitamin D3], the differences in viability result in the data set with HBL-100 cells (setting [3]) was “No significant differences”. The “effect on cell growth” value with MDA-MB-231 cells [1] (100 nM 1,25-D3 or 1 μM IMiD alone, up to 6 days) is “no effect”. Further, the “effect on cell viability” value with MDA-MB-231 cells [2] (100 nM 1,25-D3 or 1 μM IMiD alone) is recorded as “no effect”. Besides, the “sensitivity of cell viability to vitamin D agent treatment” value was “resistant” in the data set with MDA-MB-231 cells [2] (setting [4]), “showed sensitivity” in the data set on MCF-7 cells (setting [4]) and “showed sensitivity” in the data set on MCF-12A cells (setting [4]). Moreover, the inhibition of viability with MCF-7 cells (setting [5]) is on record as 40%; with MCF-12A cells (setting [5]), 35%.
A word on the inhibition: it is the percentage by which the read-out fell short of the control. As a reminder, the inhibition of growth is the share of the control response that was lost under treatment. `Nc1cccc2c1CN(C1CCC(=O)NC1=O)C2=O` (stereo not shown) [Lenalidomide, 1-oxo-2-(2,6-dioxopiperidin-3-yl)-4-aminoisoindoline]: the differences in viability entry in the data set on HBL-100 cells (lenalidomide 0 μM up to 10 μM, FIG. 13, p>0.05) is “No significant differences”; in the data set on HBL-100 cells (setting [3]), “No significant differences”. In addition, the inhibition at 10 µM with MDA-MB-231 cells [1] (Homo sapiens, MDA-MB-231, 144 h, single agent, 10 μM lenalidomide (highest dose), up to 6 days) is 28%. For the same molecule, the “minimal concentration giving statistically significant inhibition of growth” value with MDA-MB-231 cells [1] (in the presence of 100 nM 1,25 D3, up to 7 days, FIG. 3) was 1 µM. The inhibition of growth in the data set with MDA-MB-231 cells [1] (single agent, 10 μM lenalidomide (highest dose), up to 6 days) is 20%. The “effect on cell viability” value is reported as “do not Affect” in the data set with MDA-MB-231 cells [2] (single agent, Thalidomide 0.01-100 μM, CC-4047 and lenalidomide 0.001-10 μM, FIG. 6A); “do not Affect” with MCF-7 cells (setting [6]); “do not Affect” with MCF-12A cells (setting [6]).

Values taken from patent US8841325B2, “Immunomodulatory compounds for the restoration of vitamin D sensitivity in vitamin D resistant tumor cells” (Celgene Corporation, priority 2009, dated 2014).
